This passage reports inhibition results from US20120121540A1 (priority 2007, published 2012).

Molecules are shown by their SMILES.

The inhibition is how much of the control response was suppressed.

The test in a line: HCV replicon assay (luciferase reporter, ET cell line). It counts as cell-based. The note with it: Hepatitis C virus, HCV replicon luciferase activity in ET cells. The essentials:
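EC50 and, via WST-1 cytotoxicity, TC50 were fitted with a Hill-coefficient equation to % inhibition across 10 two-fold dilutions. Compounds at 0.1 nM-[…] with 0.5% DMSO were applied 24 h post-seeding to replicon-bearing ET cells (luc-ubi-neo/NS3-5B, adaptive mutations). Firefly luciferase signal was measured after 48-72 h.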
For orientation: In antiviral work, replicon cells carry a viral genome segment that copies itself.
Turning to `O=C(c1cn2cc(-c3cn[nH]c3)cc(C(F)(F)F)c2n1)N1CCC(c2ccc(F)cc2)C1` (stereo not drawn) [Compound 255, [3-(4-Fluoro-phenyl)-pyrrolidin-1-yl]-[6-(1H-pyrazol-4-yl)-8-trifluoromethyl-imidazo[1,2-a]pyridin-2-yl]-methanone], the inhibition at 10 µM is 76.6%. `CS(=O)(=O)NC1CN(C(=O)c2nc3c(C(F)(F)F)cc(-c4cn[nH]c4)cn3c2Cl)C1` [Compound 521, N-{1-[3-Chloro-6-(1H-pyrazol-4-yl)-8-trifluoromethyl-imidazo[1,2-a]pyridine-2-carbonyl]-azetidin-3-yl}-methanesulfonamide] showed an inhibition at 10 µM of 72.8%.

Consider `O=C(c1nc2c(C(F)(F)F)cc(-c3ccoc3)cn2c1Cl)N1CC(NS(=O)(=O)c2ccccc2)C1` [Compound 492, N-[1-(3-Chloro-6-furan-3-yl-8-trifluoromethyl-imidazo[1,2-a]pyridine-2-carbonyl)-azetidin-3-yl]-benzenesulfonamide], for which the inhibition at 10 µM came out at 97.4%.

`COC(=O)c1ccccc1C1CCN(C(=O)c2nc3c(C(F)(F)F)cc(-c4ccoc4)cn3c2Cl)C1` (stereo not drawn) [Compound 338, 2-[1-(3-Chloro-6-furan-3-yl-8-trifluoromethyl-imidazo[1,2-a]pyridine-2-carbonyl)-pyrrolidin-3-yl]-benzoic Acid Methyl Ester] showed an inhibition at 10 µM of 49.3%. The figure for `O=C(NCc1cccs1)c1cn2nc(-c3ccccc3)cc(C(F)(F)F)c2n1` [Compound 248, 6-Phenyl-8-trifluoromethyl-imidazo[1,2-b]pyridazine-2-carboxylic Acid (thiophen-2-ylmethyl)-amide] is 45.8%; for `CC(C)(C)OC(=O)N[C@@H]1CCN(C(=O)c2nc3c(C(F)(F)F)cc(-c4ccoc4)cn3c2Cl)C1` [Compound 478, [1-(3-Chloro-6-furan-3-yl-8-trifluoromethyl-imidazo[1,2-a]pyridine-2-carbonyl)-pyrrolidin-3-yl]-carbamic acid tert-butyl ester] it is 4.9%. Under `O=C(NCc1ccccc1C(F)(F)F)c1nc2c(C(F)(F)F)cc(-c3ccco3)cn2c1Cl` [Compound 179, 3-Chloro-6-furan-2-yl-8-trifluoromethyl-imidazo[1,2-a]pyridine-2-carboxylic acid 2-trifluoromethyl-benzylamide] stands 37.5%. In turn, `O=C(c1nc2c(C(F)(F)F)cc(-c3ccoc3)cn2c1Cl)N1CCC(Oc2ccccc2)C1` (stereo not drawn) [Compound 593, (3-Chloro-6-furan-3-yl-8-trifluoromethyl-imidazo[1,2-a]pyridin-2-yl)-(3-phenoxy-pyrrolidin-1-yl)-methanone] had an inhibition at 10 µM of 89.5%. `O=C(NCc1cccs1)c1cc2cc(-c3ccco3)cc(Cl)n2n1` [Compound 145, 7-Chloro-5-furan-2-yl-pyrazolo[1,5-a]pyridine-2-carboxylic Acid (thiophen-2-ylmethyl)-amide] yielded an inhibition at 10 µM of 49.8%. The figure for `CN(Cc1cccs1)C(=O)c1nc2c(C(F)(F)F)cc(-c3ccoc3)cn2c1Cl` [Compound 332, 3-Chloro-6-furan-3-yl-8-trifluoromethyl-imidazo[1,2-a]pyridine-2-carboxylic Acid Methyl-thiophen-2-ylmethyl-amide] is 37.7%.

Molecule `O=C(c1nc2c(C(F)(F)F)cc(-c3ccco3)cn2c1Cl)N1CC(Cc2ccccc2)C1` [Compound 328, (3-Benzyl-azetidin-1-yl)-(3-chloro-6-furan-2-yl-8-trifluoromethyl-imidazo[1,2-a]pyridin-2-yl)-methanone] showed an inhibition at 10 µM of 72.5%.

Molecule `O=C(NCCc1ccc(F)cc1)c1nc2c(C(F)(F)F)cc(-c3ccoc3)cn2c1Cl` [Compound 407, 3-Chloro-6-furan-3-yl-8-trifluoromethyl-imidazo[1,2-a]-pyridine-2-carboxylic acid [2-(4-fluoro-phenyl)-ethyl]-amide] yielded an inhibition at 10 µM of 88%. In the case of `O=C(c1nc2c(C(F)(F)F)cc(-c3cn[nH]c3)cn2c1Cl)N1CC=C(c2nccs2)C1` [Compound 439, [3-Chloro-6-(1H-pyrazol-4-yl)-8-trifluoromethyl-imidazo[1,2-a]pyridin-2-yl]-(3-thiazol-2-yl-2,5-dihydro-pyrrol-1-yl)-methanone], testing at 10 µM gave an inhibition of 99.2%.

On to `O=C(c1nc2c(C(F)(F)F)cc(-c3ccoc3)cn2c1Cl)N1CCC(c2ncon2)C1` (stereo not drawn) [Compound 417, (3-Chloro-6-furan-3-yl-8-trifluoromethyl-imidazo[1,2-a]pyridine-2-yl)-(3-[1,2,4]oxadiazol-3-yl-pyrrolidin-1-yl)-methanone], for which the inhibition at 10 µM worked out at 96.5%. The figure for `O=C(c1nc2c(C(F)(F)F)cc(-c3cn[nH]c3)cn2c1Cl)N1CC=C(c2cccs2)C1` [Compound 443, [3-Chloro-6-(1H-pyrozol-4-yl)-8-(trifluoromethyl)imidazo[1,2-a]pyridine-2-yl][3-(thiophen-2-yl)-2,5-dihydro-1H-pyrrol-1-yl]methanone] is 99.3%; for `O=C(NCc1cccs1)c1nc2c(C(F)(F)F)cc(-c3cn[nH]c3)cn2c1Cl` [Compound 290, 3-Chloro-6-(1H-pyrazol-4-yl)-8-trifluoromethyl-imidazo[1,2-a]pyridine-2-carboxylic Acid(thiophen-2-ylmethyl)-amide] it is 93.9%; for `CN(C)CCOc1ccccc1CNC(=O)c1nc2c(C(F)(F)F)cc(-c3ccco3)cn2c1Cl` [Compound 215, 3-Chloro-6-furan-2-yl-8-trifluoromethyl-imidazo[1,2-a]pyridine-2-carboxylic Acid 2-(2-dimethylamino-ethoxy)-benzylamide] it is 49%. In turn, `O=C(c1nc2c(C(F)(F)F)cc(-c3ccoc3)cn2c1Cl)N1CCC(c2cccc(Cl)c2)C1` (stereo not drawn) [Compound 460, (3-Chloro-6-furan-3-yl-8-trifluoromethyl-imidazo[1,2-a]pyridin-2-yl)-[3-(3-chloro-phenyl)-pyrrolidin-1-yl]-methanone] yielded an inhibition at 10 µM of 88%. Under `N#Cc1c(F)ccc(F)c1C1=CCN(C(=O)c2nc3c(C(F)(F)F)cc(-c4ccoc4)cn3c2Cl)CC1` [Compound 635, 2-(1-{[3-chloro-6-(furan-3-yl)-8-(trifluoromethyl)imidazo[1,2-a]pyridin-2-yl]carbonyl}-1,2,3,6-tetrahydropyridin-4-yl)-3,6-difluorobenzonitrile] stands 95.9%.

`O=C(NCc1cccs1)c1nn2c(I)cc(-c3ccccc3)cc2c1Br` [Compound 120, 3-Bromo-7-iodo-5-phenyl-pyrazolo[1,5-a]pyridine-2-carboxylic Acid (thiophen-2-ylmethyl)-amide] had an inhibition at 10 µM of 66.6%. Under `COC(=O)c1cc(C(F)(F)F)c2nc(C(=O)NCc3cccs3)c(Cl)n2c1` [Compound 312, 3-Chloro-2-[(thiophen-2-ylmethyl)-carbamoyl]-8-trifluoromethyl-imidazo[1,2-a]pyridine-6-carboxylic Acid Methyl Ester] stands 76.2%; under `O=C(NCc1cccs1)c1cc2cc(-c3ccco3)cc(C(F)(F)Cl)n2n1` [Compound 133, 7-(Chloro-difluoro-methyl)-5-furan-2-yl-pyrazolo[1,5-a]pyridine-2-carboxylic Acid (thiophen-2-ylmethyl)-amide], 99.8%.

In the case of `O=C(NCc1cccs1)c1cn2cc(-c3ccco3)cc(C(F)(F)F)c2n1` [Compound 138, 6-Furan-2-yl-8-trifluoromethyl-imidazo[1,2-a]pyridine-2-carboxylic Acid (thiophen-2-ylmethyl)-amide], testing at 10 µM gave an inhibition of 92.1%. Regarding `O=C(c1nc2c(C(F)(F)F)cc(-c3ccoc3)cn2c1Cl)N1CCN(c2ccncc2)CC1` [Compound 533, (3-Chloro-6-furan-3-yl-8-trifluoromethyl-imidazo[1,2-a]pyridine-2-yl)-[4-pyridin-4-yl-piperazin-1-yl]-methanone], 10 µM produced 23.4% inhibition.

For the molecule `O=C(c1nc2c(C(F)(F)F)cc(-c3ccoc3)cn2c1Cl)N1CC(NS(=O)(=O)c2ccc(F)cc2)C1` [Compound 496, N-[1-(3-Chloro-6-furan-3-yl-8-trifluoromethyl-imidazo[1,2-a]pyridine-2-carbonyl)-azetidin-3-yl]-4-fluoro-benzenesulfonamide], the inhibition at 10 µM is 94.3%. Under `O=C(NCc1cccs1)c1nc2c(C(F)(F)F)cc(-c3cccc(F)c3)cn2c1C#Cc1cccnc1` [Compound 305, 6-(3-Fluoro-phenyl)-3-pyridin-3-ylethynyl-8-trifluoromethyl-imidazo[1,2-a]pyridine-2-carboxylic Acid (thiophen-2-ylmethyl)-amide] stands 59.5%; under `O=C(Cc1nc2c(C(F)(F)F)cc(-c3ccoc3)cn2c1Cl)N1CCC(c2cccc(F)c2)C1` (stereo not drawn) [Compound 604, 2-[3-chloro-6-(furan-3-yl)-8-(trifluoromethyl)imidazo [1,2-a]pyridin-2-yl]-1-[3-(3-fluorophenyl)pyrrolidin-1-yl]ethanone], 74.1%; under `O=C(c1cn2cc(-c3cn[nH]c3)cc(C(F)(F)F)c2n1)N1CC=C(c2nccs2)CC1` [Compound 612, [6-(1H-pyrazol-4-yl)-8-(trifluoromethyl)imidazo[1,2-a]pyridin-2-yl][4-(1,3-thiazol-2-yl)-3,6-dihydropyridin-1(2H)-yl]methanone], 59.3%. Under `O=C(c1nc2c(C(F)(F)F)cc(-c3ccoc3)cn2c1Cl)N1CCN(c2cccnc2)CC1` [Compound 543, (3-Chloro-6-furan-3-yl-8-trifluoromethyl-imidazo[1,2-a]pyridin-2-yl)-(4-pyridin-3-yl-piperazin-1-yl)-methanone] stands 91.2%; under `O=C(c1nc2c(C(F)(F)F)cc(-c3ccoc3)cn2c1Cl)N1CCC(c2cccc(F)c2)C1` (stereo not drawn) [Compound 334, (3-Chloro-6-furan-3-yl-8-trifluoromethyl-imidazo[1,2-a]pyridin-2-yl)-[3-(3-fluoro-phenyl)-pyrrolidin-1-yl]-methanone], 96.1%.
